Key:
Experiment in all cases: relative viability (nuclei count vs DMSO), 5 days (fraction); higher = more cells survive
[1] = compound: C(C(=O)C(=O)O)Br [Bromopyruvate] + CCNC(=O)c1noc(-c2cc(C(C)C)c(O)cc2O)c1-c1ccc(CN2CCOCC2)cc1 [Luminespib] (partner 0.01 µM)
In short: (§1)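 Lung cancer cell lines, seeded in 1536-well plates, were treated the following day by pin tool with a single drug or with five library-drug doses (not always all listed) in √10 steps on top of a fixed anchor-drug dose. Cells were fixed and nuclei stained in one step after 5 days, and nuclei were counted. Relative viability is the nuclei count for treated wells divided by that for vehicle wells, reported as medians of duplicate plates.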

Bicalutamide + AZD7762 = compound: CC(O)(CS(=O)(=O)c1ccc(F)cc1)C(=O)Nc1ccc(C#N)c(C(F)(F)F)c1 [Bicalutamide] + NC(=O)Nc1cc(-c2cccc(F)c2)sc1C(=O)N[C@H]1CCCNC1 [AZD7762] (partner 0.2 µM)
In short: as §1

[2] = compound: CC(O)(CS(=O)(=O)c1ccc(F)cc1)C(=O)Nc1ccc(C#N)c(C(F)(F)F)c1 [Bicalutamide] + CS(=O)(=O)N1CCN(Cc2cc3nc(-c4cccc5[nH]ncc45)nc(N4CCOCC4)c3s2)CC1 [Pictilisib] (partner 1 µM)
In short: as §1

Bromopyruvate + Olaparib = compound: C(C(=O)C(=O)O)Br [Bromopyruvate] + O=C(c1cc(Cc2n[nH]c(=O)c3ccccc23)ccc1F)N1CCN(C(=O)C2CC2)CC1 [Olaparib] (partner 8 µM)
In short: as §1

Cell Line	relative viability ([1]; first compound 1 µM)	relative viability ([1]; first compound 3.162 µM)	relative viability ([1]; first compound 10 µM)	relative viability ([1]; first compound 31.62 µM)	relative viability ([1]; first compound 100 µM)	relative viability (Bicalutamide + AZD7762; first compound 0.08 µM)	relative viability (Bicalutamide + AZD7762; first compound 0.253 µM)	relative viability (Bicalutamide + AZD7762; first compound 0.8 µM)	relative viability (Bicalutamide + AZD7762; first compound 2.53 µM)	relative viability ([2]; first compound 0.08 µM)	relative viability ([2]; first compound 0.253 µM)	relative viability ([2]; first compound 0.8 µM)	relative viability ([2]; first compound 2.53 µM)	relative viability (Bromopyruvate + Olaparib; first compound 1 µM)	relative viability (Bromopyruvate + Olaparib; first compound 3.162 µM)	relative viability (Bromopyruvate + Olaparib; first compound 10 µM)	relative viability (Bromopyruvate + Olaparib; first compound 31.62 µM)	relative viability (Bromopyruvate + Olaparib; first compound 100 µM)
NCI-H1623	0.545	0.523	0.747	0.489	0.504	–	–	–	–	–	–	–	–	–	–	–	–	–
NCI-H1703	–	–	–	–	–	0.123	0.117	0.162	0.174	0.235	0.261	0.236	0.231	0.648	0.418	0.335	0.633	0.502
Calu-6	–	–	–	–	–	–	–	–	–	1.06	0.87	1.04	0.839	0.579	0.581	0.686	0.55	0.417
EBC-1	–	–	–	–	–	–	–	–	–	0.41	0.362	0.378	0.23	0.691	0.594	0.741	0.617	0.564
HCC-78	–	–	–	–	–	0.758	0.598	0.696	0.611	0.202	0.179	0.208	0.169	0.762	0.811	0.944	0.776	0.848
IA-LM	–	–	–	–	–	–	–	–	–	0.368	0.389	0.422	0.507	0.839	0.857	0.855	0.98	0.941
COR-L23	0.611	0.602	0.815	0.694	0.119	–	–	–	–	0.896	0.724	0.945	0.765	0.398	0.342	0.349	0.319	0.129
COR-L 105	0.775	0.827	0.925	0.692	0.552	–	–	–	–	0.372	0.324	0.394	0.303	0.771	0.71	0.642	0.504	0.429
SK-LU-1	0.213	0.195	0.208	0.194	0.215	–	–	–	–	0.6	0.503	0.715	0.59	0.425	0.416	0.492	0.367	0.424
NCI-H661	0.882	0.969	0.964	0.91	0.892	–	–	–	–	0.433	–	0.494	0.407	0.734	0.7	0.799	0.731	0.65
NCI-H2228	0.182	0.144	0.148	0.145	0.193	–	–	–	–	0.347	0.341	0.425	0.409	0.813	0.635	0.711	0.567	0.647
NCI-H2009	1	1.09	0.953	1.01	0.708	–	–	–	–	1.2	0.944	1.06	0.737	0.672	0.688	0.727	0.645	0.461
SW 1573	0.214	0.212	0.562	0.135	0.0625	–	–	–	–	0.564	0.475	0.461	0.535	0.555	0.469	0.475	0.358	0.0623
NCI-H522	1.07	1.16	1.11	1.28	1.29	0.762	0.849	0.916	0.808	–	–	–	–	0.615	0.54	0.693	0.643	0.477
NCI-H1299	–	–	–	–	–	–	–	–	–	0.909	0.698	0.823	0.492	0.937	0.951	0.963	0.979	0.882
NCI-H1650	0.19	0.224	0.186	0.177	0.182	–	–	–	–	0.701	0.502	0.825	0.597	0.82	0.734	0.723	0.71	0.567
NCI-H2023	0.77	0.883	0.789	0.65	0.901	–	–	–	–	0.279	0.21	0.253	0.178	0.452	0.455	0.465	0.544	0.551
NCI-H1648	–	–	–	–	–	–	–	0.736	0.686	–	–	–	–	0.731	0.92	0.978	1.11	0.982
SK-MES-1	0.615	0.882	0.948	0.805	0.881	–	–	–	–	0.351	0.39	0.382	0.357	0.802	0.738	0.85	0.626	0.554
NCI-H2342	0.756	0.775	0.661	0.57	0.531	0.553	0.478	0.528	0.568	–	–	–	–	0.477	0.367	0.376	0.377	0.344
SW 900	0.16	0.173	0.197	0.166	0.21	0.707	0.645	0.745	0.586	–	–	–	–	0.892	0.874	0.936	0.8	0.821
A549	–	–	–	–	–	–	–	–	–	0.546	0.483	0.617	0.357	–	0.286	0.403	0.356	0.3
NCI-H520	0.223	0.216	0.228	0.182	0.242	–	–	–	–	0.516	0.254	0.281	0.335	0.37	0.32	0.367	0.302	0.264
NCI-H1563	0.482	0.559	0.489	0.466	0.532	–	–	–	–	0.641	0.596	0.644	0.599	–	–	–	–	–

Source: the supplement of paper PMC10307832
